According to patent US8288378B2, “Phosphoinositide modulation for the treatment of neurodegenerative diseases” (The Trustees of Columbia University in the City of New York, priority 2006, dated 2012):
One block for each compound: values may come before it.

Experiments:
[1] = tested on: HeLa cells; experiment: Lipid raft fractionation and Western blot of PS1 C-terminal fragments; assay type: cell-based
[2] = tested on: mouse cortical neurons; experiment: Phosphoinositide / anionic phospholipid levels in cultured cortical neurons (HPLC with suppressed conductivity); settings: for effect of Ca2+ chelation on oAβ42-induced PIP2 decrease: oAβ42 for 60 min, EGTA 2 mM; for PIP2 levels after Ca2+ ionophore: 2 μM
Experimental: HPLC Lipid Analysis. Cells grown in 15-cm^2 dishes were scraped in 0.75 ml ice-cold MeOH: 1M HCl (1:1) supplemented with 2 mM AlCl3. Lipids were then extracted and deacylated by incubation with 0.5 ml methylamine reagent (MeOH:40% methylamine in water:n-butanol:water 47:36:9:8) at 50° C. for 45 min. The aqueous phase was dried, resuspended in 0.5 ml of n-butanol: petroleum ether:ethyl formate (20:40:1), and extracted twice with an equal volume of water. Aqueous extracts were dried, resuspended in water, and subjected to anion-exchange HPLC on an Tonpac AS11-HC column (Dionex). Negatively charged glycerol head groups were eluted with a 1.5-86 mM KOH gradient and detected online by suppressed conductivity 75 in a Dionex Ion Chromatography system equipped with an ASRS-ultra II self-regenerating suppressor. Individual peaks were identified and peak areas were calculated using the Chromeleon software (Dionex). Using deacylated anionic phospholipids as standards, lipid masses were calculated and expressed as molar fractions of total anionic phospholipids present in the sample (see Ref. 69).
2-week-old, cultured mouse cortical neurons were incubated with three different Aβ42 preparations (monomers, soluble oligomers, and fibrils) at concentrations of 200 nM. The levels of PIP2 were measured by conductance-based HPLC quantitation.
This preparation contains a mixture of monomers, trimers and tetramers as well as traces of dimers and high molecular weight oligomers, as described previously. Potential effects of this preparation were investigated either after an acute (0-120 min) or a subchronic treatment (72 h). The levels of phosphoinositides as well as a variety of other anionic phospholipids were measured and quantified in neuronal extracts using HPLC combined with suppressed conductivity detection (69, 71).
Cell culture. […] Primary cultures from cortical neurons were generated from newborn mice as described (126). Briefly, cortices were dissected out, trypsinized for 45 minutes, and then dissociated with a Pasteur pipette and plated on poly-ornithine coated 10 mm dishes at a density of 25,000 cells/cm^2 in Neurobasal-A medium containing 1 mM kyneurenic acid to reduce enhanced synaptic transmission due to the high density of the cultures.
Lipid measurements. Cultures were scrapped on a methanol:1N HCl 1:1 buffer supplemented with 2 mM AlCl3. Ice-cold chloroform (0.4 ml) was then added, and samples were vortexed for 1 min. The solvent phase was washed with 1 ml. methanol:2 mM oxalic acid (1:0.9 vol/vol) and dried under a flow of nitrogen.

[3] = tested on: PC12 cells; experiment: PIP2 sensor GFP-PHPLCδ1 plasma membrane/cytosol localization; assay type: cell-based; settings: for GFP-PHPLCδ1 probe localization: oAβ42, 2 μM ionomycin, Aβ42Rev
Experimental: Confocal microscopy. […] Cells have been analyzed after being treated for different time lengths: 0, 10 minutes, 30 minutes and 120 minutes. Cells were washed in phosphate buffer and fixed with 4 percent paraformaldehyde. Confocal z-stack images (0.5 μm) of PC12 cells were obtained using Nikon EZ-C1.2.30 confocal microscope, (×100) oil immersion objective. Quantification of GFP intensity was calculated using the ImageJ software: for each cell in a given image, a line intensity profile across the cell was obtained. The relative decrease in plasma membrane localization was calculated as the ratio between the plasma membrane fluorescence intensity and the average cytosolic fluorescence intensity. The average of the ratio was reported in the graph.
PC12 cells were cultured in RPMI media supplemented with 1 mM glutamine, 5% FBS, 10% horse serum and penicillin, streptomycin. The day before transfection, PC12 cells were split 50% and plated on poly-D-lysine coated coverslips. Cells were transfected with Lipofectamine 2000 as per the manufacturer's protocol with GFP-PHPLCδ1. After 16-24 hours, cells were treated as indicated for 30 minutes in conditioned media. Cells were then briefly washed in PBS and fixed for 20 minutes in 4% paraformaldehyde. Cells were then washed in 0.1M glycine and twice in PBS for 5 minutes each. Cells were mounted using Vectashield. Images were collected using a con-focal microscope and the plot profile was analyzed with ImageJ 1.37v. The ratio of the fluorescence profiles of the plasma membrane and the cytosol were calculated and deemed to represent translocation of the PIP2 probe GFP-PH-PLCδ1 (72).

[4] = tested on: N2a cells stably expressing human APP with the Swedish mutation; experiment: Aβ42/Aβ40 production in N2a cells stably expressing human APP with the Swedish mutation; assay type: cell-based; settings: 6 hours treatment, read-out: EC50, inhibition of production of Aβ42 as well as Aβ40
Experimental: N2a cells stably expressing human APP with the Swedish mutation were grown in DMEM-supplemented with 50% Opti-MEM, 10% FBS, penicillin, streptomycin, and G418. Cells were grown to 80-90% confluence and treated for 6 hours with the drugs as indicated in 900 μl media. The conditioned media was harvested and centrifuged for 15 minutes at 14,000 rpm in a table top Eppendorf centrifuge 5417R. The adherent cells were washed two times with ice cold PBS and lysed in 100 μl super IP buffer (10 mM Tris Cl, pH, 7.4, 150 mM NaCl, 2 mM EDTA, 1% Triton X-100, 0.25% NP-40, protease inhibitors). Cell lysates were scraped and incubated for 15 minutes on ice before centrifugation at 14,000 rpm in a table-top Eppendorf centrifuge 5417R. Cleared conditioned media and lysates were stored at −80° C. until use. Aβ 42 and Aβ40 were quantified with the commercially available kit from Biosource as indicated in the protocol. Protein concentration of the cell lysate was determined using the BCA assay from Pierce.
KU-55933 is a small molecule inhibitor of ATM kinase as well as PI3K family members (FIG. 22). […] Aβ 42 and Aβ40 were quantified with the commercially available kit from Biosource as indicated in the protocol. Protein concentration of the cell lysate was determined using the BCA assay from Pierce.

[5] = previous studies (refs 113, 114); cited from earlier work
[6] = tested on: N2a cells stably expressing APP harboring the Swedish mutation; experiment: Caspase 3 cleavage Western blot; assay type: cell-based; settings: 6 hours; concentrations which decreased Aβ42 generation
Experimental: Western blot analysis of full length APP and caspase3 was conducted on 30 μg of lysate collected as described above from N2a cells stably expressing APP harboring the Swedish mutation. Cells were treated for 6 hours with KU-55933 at concentrations indicated. APP was detected using the LN27 antibody from Zymed and caspase 3 full length and cleavage product were probed using the caspase 3 antibody from Cell Signaling Technology.

[7] = target: T1, Aβ42 (Homo sapiens, UniProt P05067); experiment: Oligomerization process of Aβ42
T1 construct: Synthetic Aβ (1-42) peptide was purchased from American Peptide; purchased American Peptide (Sunnyvale, Calif.); host or cells: synthetic peptide
T1 sequence (P05067 672-713 limits assumed): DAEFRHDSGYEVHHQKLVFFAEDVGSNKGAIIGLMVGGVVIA

[8] = tested on: APP/PS1 mice; experiment: Radial-arm water-maze in APP/PS1 mice; assay type: in vivo, mouse; settings: i.p., 10 mg/kg, three weeks, 3 month-old APP/PS1 mice
Experimental: Therefore experiments were performed to determine whether (20S)Rg3 can improve the memory impairments in an AD mouse model. (20S)Rg3 was administered for three weeks (i.p., 10 mg/kg) to 3 month-old APP/PS1 mice and age-matched littermate controls. Mice were then subjected to behavioral testing in the radial-arm water-maze paradigm (74).

[9] = target: T2, PI4KIIα (Homo sapiens, UniProt Q9BTU6); experiment: PI4KIIα lipid kinase activity assay with TLC analysis; assay type: biochemical
T2 construct: made in house
T2 sequence (Q9BTU6 whole entry): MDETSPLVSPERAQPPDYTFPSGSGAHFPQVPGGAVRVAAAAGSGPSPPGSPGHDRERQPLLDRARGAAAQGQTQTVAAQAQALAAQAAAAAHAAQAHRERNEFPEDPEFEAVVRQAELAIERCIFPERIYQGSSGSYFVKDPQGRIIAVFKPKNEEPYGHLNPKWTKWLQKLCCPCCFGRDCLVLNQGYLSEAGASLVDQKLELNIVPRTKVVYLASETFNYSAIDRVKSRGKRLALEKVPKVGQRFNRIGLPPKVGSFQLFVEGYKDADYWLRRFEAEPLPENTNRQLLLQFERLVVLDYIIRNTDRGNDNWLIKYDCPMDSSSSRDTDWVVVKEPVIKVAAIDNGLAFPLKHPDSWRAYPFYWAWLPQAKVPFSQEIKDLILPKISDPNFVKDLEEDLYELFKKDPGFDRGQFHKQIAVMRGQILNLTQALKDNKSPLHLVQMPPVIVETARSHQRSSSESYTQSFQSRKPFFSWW
Experimental: Lipid kinase assay and thin layer chromatography. In vitro lipid phosphorylation assays on post-nuclear supernatant of HEK293, Neuro2a or CHO cells expressing either WT or FAD mutant PS1 and PS2, were carried out as previously described (70). Briefly, 100 μg protein from the supernatant were mixed with 2.5 μl ATP (final: 50 μM), 2.5 μl CaCl2 (final: 50 μM), 27.0 μl EGTA-free kinase buffer (25 mM Hepes, 100 mM KC1, 2.5 mM MgCl2) and 0.5 μl gamma ATP (final 100 nCi/μl) and samples incubated at 37° C. for 15 min. Reaction products were extracted and analyzed by thin layer chromatography (TLC) silica plate (solvent: 64—acetone 30—methanol 24—acetic acid 32—water 14 (v/v)) and visualized by autoradiography.
Mammalian expression of a construct encoding either wild-type (IIα) or the kinase-dead mutant (IIα-KD) forms of PI4KIIα (HA-tagged) were transfected into CHO cells. The enzyme was immuno-isolated using anti-HA affinity beads from cell extracts. The purified PI4KIIα proteins were subjected to a lipid kinase activity assay and TLC analysis using PI as a substrate (FIG. 10C). PI4KIIα, but not the kinase-dead mutant, enhanced the incorporation of [γ32P]-ATP into PIP (FIG. 10C,D).

[10] = tested on: PI4KIIα +/− ES-derived neurons; experiment: Aβ42 generation and PIP synthesis in PI4KIIα +/− ES cell-derived pyramidal neurons; assay type: cell-based, mouse
Excerpt: Mouse embryonic stem (ES) cell-derived pyramidal neurons that harbor the heterozygote knockout of the PI4KIIα allele (PI4KIIα +/−; purchased from Sanger Institute Gene Trap Resource; http://www.sanger.ac.uk/PostGenomics/genetrap/) were then used to further study the role for PI4KIIα in Aβ42 generation in neurons. Differentiation and morphology of pyramidal neurons from PI4KIIα heterozygote (+/−) ES cells were indistinguishable from those from match wild-type ES cells (representative neuronal staining is shown in FIGS. 14A and B). […] Aβ42 generation was substantially elevated in the neurons derived from PI4KIIα +/−ES cells.

[11] = tested on: CA1 region of the hippocampus; experiment: Long-term potentiation in adult hippocampal slices (CA1, tetanic stimulation of Schaeffer collateral pathway); parameters: species or system mouse
Excerpt: Long-term potentiation (LTP) was induced in the CA1 region of the hippocampus through tetanic stimulation of the Schaeffer collateral pathway.

[12] = target: T3, PIPK1γ (Homo sapiens, UniProt O60331); experiment: PIPK1γ activity assay; assay type: biochemical; settings: 50 μM
T3 construct: GST
T3 sequence (O60331 whole entry): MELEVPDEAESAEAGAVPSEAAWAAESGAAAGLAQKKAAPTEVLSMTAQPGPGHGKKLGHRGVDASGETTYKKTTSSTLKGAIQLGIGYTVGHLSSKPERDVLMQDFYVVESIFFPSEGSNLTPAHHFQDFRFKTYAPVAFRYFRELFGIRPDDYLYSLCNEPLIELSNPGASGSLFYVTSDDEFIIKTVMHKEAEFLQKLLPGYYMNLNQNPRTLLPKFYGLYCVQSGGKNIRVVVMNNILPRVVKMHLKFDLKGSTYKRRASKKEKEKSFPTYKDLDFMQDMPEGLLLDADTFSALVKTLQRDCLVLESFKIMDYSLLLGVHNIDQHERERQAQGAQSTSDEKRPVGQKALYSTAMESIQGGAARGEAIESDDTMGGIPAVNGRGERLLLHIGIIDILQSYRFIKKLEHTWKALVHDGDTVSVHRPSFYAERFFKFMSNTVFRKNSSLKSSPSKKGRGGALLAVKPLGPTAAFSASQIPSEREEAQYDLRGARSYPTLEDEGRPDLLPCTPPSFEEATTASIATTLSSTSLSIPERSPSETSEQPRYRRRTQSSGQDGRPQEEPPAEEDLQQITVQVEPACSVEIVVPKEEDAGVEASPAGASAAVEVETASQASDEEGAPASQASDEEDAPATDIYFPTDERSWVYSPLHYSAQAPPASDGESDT
Excerpt: Thus, (20S)Rg3 serves as an activator of PI4KIIα, resulting in the increase in the steady-state levels of PIP and subsequently the levels of PIP2.

[13] = tested on: PI4KIIα-overexpressing cells; experiment: Aβ42 levels in PI4KIIα-overexpressing cells; assay type: cell-based
Experimental: Since (20S)Rg3 potentiates PI4KIIα activity (conversion from PI to PIP), it was determined whether the increase in PI4KIIα activity exerts similar effects on Aβ42 generation as observed in the (20S)Rg3-treated cells. Overexpression of PI4KIIα leads to increased protein levels of PI4KIIα and increased PI 4-kinase activity as measured by lipid kinase assay. […] Thus, increased levels of the (20S)Rg3 target protein PI4KIIα may amplify the effects of the Aβ42-lowering activity of (20S)Rg3.

Compound: CSc1ccc(/C=C2/C(C)=C(CC(=O)O)c3cc(F)ccc32)cc1 [sulindac sulfide]
association of PS1 fragments with lipid rafts [1]: did not confer any effects

Compound: O=C(O)CN(CCOCCOCCN(CC(=O)O)CC(=O)O)CC(=O)O [EGTA]
effect of Ca2+ chelation on oAβ42-induced PIP2 decrease [2]: prevented oAβ42 from decreasing PIP2 levels

Compound: CNc1ccc2oc(C[C@H]3O[C@@]4(CC[C@H]3C)O[C@H]([C@H](C)C(=O)c3ccc[nH]3)[C@H](C)C[C@H]4C)nc2c1C(=O)O [A23187]
PIP2 levels after Ca2+ ionophore [2]: caused PIP2 levels to decrease

Compound: O=c1cc(-c2cccc3c2Sc2ccccc2S3)oc(N2CCOCC2)c1 [KU-55933]
depletion of PIP2 caused by Aβ42 oligomers ([3]; 30 minutes, concentration comparable to EC50 for Aβ42): rescued the depletion of PIP2 | EC50 [4]: 3.5 µM | cytotoxicity [5]: found not to be cytotoxic | caspase 3 cleavage [6]: did not induce caspase 3 cleavage

PIP and PIP2 formation with both PI4KIIα and PIPK1γ ([9]; both enzymes incubated with compound): led to an increase of both PIP and PIP2 | activity of PIPK1γ [12]: did not confer any detectable effects
Compound: CC(C)=CCC[C@](C)(O)[C@H]1CC[C@]2(C)[C@@H]1[C@H](O)C[C@@H]1[C@@]3(C)CC[C@H](O[C@@H]4O[C@H](CO)[C@@H](O)[C@H](O)[C@H]4O[C@@H]4O[C@H](CO)[C@@H](O)[C@H](O)[C@H]4O)C(C)(C)[C@@H]3CC[C@]12C [(20S)Rg3]
lipid raft-associated PS1-CTF levels ([1]; HeLa cells): significantly reduced | total PS-CTF levels ([1]; HeLa cells): unchanged | effect on oligomerization process of Aβ42 [7]: no effects on the oligomerization process of Aβ42 | Aβ oligomer-induced loss of plasma membrane fluorescence ([3]; co-incubation with Aβ oligomers): prevented the loss of the plasma membrane fluorescence | spatial working memory deficits [8]: dramatically improved spatial working memory deficits | PI4KIIα activity ([9]; 50 μM with purified enzyme): enhanced PI4KIIα activity in a dose-dependent manner | ability to reduce Aβ42 ([10]; PI4KIIα +/− ES-derived neurons): no longer able to reduce Aβ42 | compound-induced PIP synthesis ([10]; PI4KIIα +/− clonal lines AC37 and AD14): substantially reduced | steady-state levels of PIP and PIP2 ([2]; 100 μM): increased steady-state levels of both PIP and PIP2 | Aβ42 oligomer-induced PIP2 reduction, pre-incubation ([2]; cells pre-incubated with compound): blocked efficiently | oAβ42-induced increase in PA levels ([2]; cultured neurons): inhibited the increase in PA levels | Aβ42 oligomer-induced reduction in PIP2 levels ([2]; treatment / co-treatment of cultured neurons): inhibited the reduction in PIP2 levels | LTP on co-incubation with Aβ oligomers ([11]; 10 μM): resulted in normal LTP | Aβ42 reduction [13]: conferred additive effects on Aβ42 reduction

Compound: oAβ42: crude oligomer preparation made from synthetic Aβ42 peptides
GFP-PHPLCδ1 probe localization [3]: significant disappearance of the probe from the plasma membrane | ATP levels ([2]; 200 nM): normal | effect on PA levels ([2]; 200 nM, 2-week-old cultured mouse cortical neurons): up-regulated | number of apoptotic nuclei ([2]; 3-day treatment, versus vehicle): comparable or slightly less | amount of pyknosis ([2]; 3-day treatment, versus vehicle-treated neurons): undistinguishable from that occurring in vehicle-treated neurons | levels of PtdA ([2]; crude oligomer preparation of synthetic Aβ42, after 120 min): approximately 130 % of control | effect on LTP ([11]; control (Synj1+/+) slices): partially impaired LTP

Compound: CC(=O)OCOC(=O)CN(CC(=O)OCOC(C)=O)c1ccccc1OCCOc1ccccc1N(CC(=O)OCOC(C)=O)CC(=O)OCOC(C)=O [BAPTA-AM]
effect of Ca2+ chelation on oAβ42-induced PIP2 decrease [2]: blocked the action of oAβ42 | increase in the levels of PtdIns(4,5)P2 ([2]; vehicle-treated and oAβ42-treated cortical neurons): 2 fold

Compound: COc1ccc2c(c1)CC[C@@H]1[C@@H]2CC[C@]2(C)[C@@H](NCCCCCCN3C(=O)C=CC3=O)CC[C@@H]12 [U73122]
PIP2 levels on oAβ42 treatment in presence of PLC inhibitor ([3]; oAβ42 60 min, inhibitor 0.5 μM): PIP2 levels remained unaffected by oAβ42

Compound: C[C@H](CCC(=O)O)C[C@H](C)C[C@H](C)C(=O)/C=C(\O)[C@H](C)C[C@H](C)C/C=C/[C@@H](C)[C@@H](O)[C@@H](C)[C@@H](O)C[C@@H]1CC[C@@](C)([C@H]2CC[C@@](C)([C@@H](C)O)O2)O1 [ionomycin]
GFP-PHPLCδ1 probe localization [3]: mimicked | PIP2 levels after Ca2+ ionophore [2]: caused PIP2 levels to decrease
